Where “and” joins values, the source holds several entries; their conditions need not be identical. Equal entries are not always repeated. Entries after “also recorded” stand apart in the source; their conditions may differ.
Key:
eNOS = eNOS activity assay (conversion of [3H]-arginine to [3H]-citrulline) in treated human endothelial cells; assay type: cell-based; details: for time after stimulation at which PI3-kinase/eNOS activity is stimulated / effect on E2-stimulated eNOS activity, later phase (≥15 min) or 30 min: E2 10 nM; for time after stimulation at which PI3-kinase/eNOS activity is stimulated / stimulation of eNOS activity by the substance alone: insulin 100 nM; for stimulation of eNOS activity by the substance alone: E2/αE2 10 nM; for effect on E2-stimulated eNOS activity, later phase (≥15 min) or 30 min: wortmannin 30 nM, ICI 10 μM, genistein 50 μM, PD98059 5 μM, actinomycin D 2 h pretreatment; for effect on basal eNOS activity, substance alone: no E2
Method: Fetal bovine serum was deprived of estrogen by charcoal-stripping. Once grown to confluence the cells were replated on 1.5% gelatin-coated flasks at 20000 cells/cm^2. […] Cell number was assessed by direct cell counting of adherent cells, after trypsin detachment, in a Neubauer hemocytometer (VWR Scientifics). The percentage of cells excluding Trypan Blue after staining with the compound was taken as a measure of cell viability.
Endothelial cells were grown to confluence on 55 cm^2 culture dishes, treated according to the indicated conditions, and harvested in ice-cold PBS containing 1 mM EDTA. The cell lysates were pelleted in a microfuge (2 minutes, 13000 rpm, 4° C.) and subsequently homogenized in a buffer containing 25 mM Tris-HCl, pH 7.4, 1 mM EDTA, 1 mM EGTA. eNOS activity was determined by measuring the conversion of [^3H]-arginine to [^3H]-citrulline. Rat cerebellum extracts, containing elevated amounts of neuronal NOS, were used as positive controls, while endothelial cell extracts incubated in the presence of the competitive eNOS inhibitor L-NAME (1 mM) served as negative controls.
Human and bovine aortic endothelial cells were harvested enzymatically with Type IA collagenase (1 mg/mL).

PI3-kinase = PI3-kinase assay on p85 immunoprecipitates of endothelial cell lysates; assay type: cell-based, human; details: for stimulation of PI3-kinase activity: E2/αE2 10 nM, insulin 100 nM; for effect on E2-induced PI3-kinase activation: E2 10 nM 20 min, ICI 10 μM, wortmannin 30 nM
Method: PI3kinase activity in endothelial cell lysates was assayed using the borate thin layer chromatography method, as described.^34 Following a 6 h incubation in serum- and estrogen-deficient medium 199, endothelial cells were treated according to the indicated conditions, washed, and harvested in ice-cold lysis buffer (137 mM NaCl, 20 mM Tris-HCl, pH 7.4, 1 mM CaCl2, 1 mM Mg Cl2, 0.1 mM Na3VO4, 1% NP-40). After pelleting the cell debris, the supernatant was incubated for 1 hour at 4° C. with 5 μL of a rabbit antiserum directed against the p85 regulatory subunit of the PI3-kinase (Upstate Biotechnology, Lake Placid, N.Y.), and immunoprecipitated with the addition of 50 μL of a 1:1 slurry of protein A-agarose for 1 hour at 4° C. Following centrifugation, the immunoprecipitates were washed three times with lysis buffer, three times with 0.1 M Tris-HCl, pH 7.4, 5 mM LiCl, 0.1 mM Na3VO4, followed by two washes with 10 mM Tris-HCl, pH 7.4, 150 mM NaCl, 5 mM EDTA, 0.1 mM Na3VO4.
The immunoprecipitates were then mixed with 50 μL Tris-HCl, pH 7.4, 150 mM NaCl, 5 mM EDTA, 20 μg of phosphatidylinositol (Sigma, Saint Louis, Mo.), 10 μL 100 mM MgCl2 and 5 μL of a 0.88 mM ATP, 20 mM MgCl2 solution, containing 30 μCi of [γ-^32P]ATP (3000 Ci/mmol; NEN Life Science Products, Boston, Mass.). […] The phospholipids were extracted with 160 μL of chloroform/methanol (1:1, v/v). 50 μL of the organic phase, containing the labeled PI3-kinase products were separated by borate thin layer chromatography on glass-backed Silica Gel 60 plates (EM Separations, Gibbstown, N.J.) pretreated with a solution containing 25 mM trans-1,2-diaminocyclohexane-N,N,N′N′-tetraacetic acid (CDTA, Sigma, Saint Louis, Mo.), 66% (v/v) ethanol and 0.06 N NaOH, dried for 1 hour and then baked at 100° C. for 15 minutes. The chromatography was developed with a solution containing 37.5% (v/v) methanol, 30% (v/v) chloroform, 22.5% (v/v) pyridine (Sigma, Saint Louis, Mo.), 1.33% (v/v) formic acid, […] boric acid and 8.5 mM butylated hydroxytoluene (Sigma, Saint Louis, Mo.), briefly dried and exposed to autoradiography.

Akt/PKB = assay: Akt kinase assay (immunoprecipitated Akt, GSK-3 peptide); assay type: cell-based, human; details: for stimulation of Akt kinase activity (words): E2/αE2 10 nM, insulin 100 nM
Method: Immunoprecipitated Akt kinase activity was assayed on endothelial cell lysates by using the Aktl/PKBα immunoprecipitation kinase assay kit (Upstate Biotechnology, Lake Placid, N.Y.). Endothelial cells were starved in phenol red-free199 medium with 0.4% estrogen-deprived FBS, treated, washed, and then harvested in ice-cold Buffer A (50 mM Tris-HCl, pH 7.5, 1 mM EDTA, 1 mM EGTA, […] Na3VO4, 0.1% (v/v) 2-mercaptoethanol, 1% Triton X-100, 50 mM sodium fluoride, 5 mM sodium pyrophosphate, 10 mM sodium glycerophosphate, 0.1 mM PMSF, 1 μg/mL of aprotinin, pepstatin, leupeptin and 1 μM microcystin). The cleared cell lysates were incubated for 1 hour at 4° C. with 4 μg/tube of anit-Akt1/PKBα PH domain immunoaffinity purified sheep IgG, after which 50 μL of a 1:1 (v/v) protein G-agarose slurry was added for an additional hour of incubation at 4° C. After centrifugation, the immunoprecipitates were washed three times with Buffer A containing 0.5 M NaCl, then two times with Buffer B (50 mM Tris-HCl, pH 7.5, 0.03% (w/v) Brij-35, 0.1 mM EGTA, 0.1% (v/v) 2-mercaptoethanol), and finally twice with 1×Assay Buffer (20 mM MOPS, pH 7.2, 25 mM β-glycerol phosphate, 5 mM EGTA, 1 mM Na3VO4, 1 mM DTT).
The immunoprecipitates were resuspended in 10 μL of ice-cold 1×Assay Buffer, and were sequentially added: 10 μL of 40 μM PKA inhibitor peptide ([…]-NH2—corresponding to residues 7-23 of human PKA inhibitor), 10 μL of Akt/PKB specific substrate peptide (100 μM) (RPRAATF—corresponding to the phosphorylation site of glycogen synthase kinase-3, specifically targeted by Akt/PKB, but not by other protein kinases such as Rsk-2 and p70 S6 kinase), and 10 μL of [γ-^32P]ATP stock solution (1×Assay Buffer with 500 μM ATP, 75 mM MgCl2, containing 1 μCi/μL [γ^32-P]ATP, 3000 Ci/mmol). The reaction was incubated at 37° C. for 30 minutes, after which 40 μL of the supernatant was mixed with 20 μL of 40% TCA and incubated for 5 minutes at room temperature. 40 μL of each final fraction were spotted onto the center of a 2 cm×2 cm P81 phosphocellulose paper. The assay squares were washed three times with 0.75% phosphoric acid for five minutes at room temperature, then once with acetone. The squares were then transferred to vials containing a liquid scintillation cocktail and read in a scintillation counter. Blank reaction for the detection of the unspecific background were performed by substituting the cell lysate with Buffer A at the beginning of the procedure, and aspecific endogenous phosphorylation of proteins in the sample extract was estimated by substituting in some samples 1×Assay Buffer for the Akt/PKB specific substrate peptide.

Molecule: 17β-estradiol [E2]
- lowest concentration increasing eNOS activity (eNOS; 30 min treatment of HSVEC): 10 pM
- EC50 (eNOS; E2 10 pM-1 μM, 30 min, human endothelial cells, read-out: EC50 value for increase in eNOS activity): ~0.1 nM and 0.1 nM
- time after stimulation at which PI3-kinase/eNOS activity is stimulated (eNOS): > 15 min
- stimulation of eNOS activity by the substance alone (eNOS; 30 min): increases eNOS activity; also recorded: biphasic increase in eNOS activity; also recorded: marked increase
- time of maximum effect on PI3-kinase and eNOS activity (eNOS; after stimulation): 15 to 20 min
- stimulation of PI3-kinase activity (PI3-kinase; 20 min): strong activation
- increase in PI3-kinase activity compared to baseline (PI3-kinase; E2 10 nM, 20 min): approximately 5 fold
- PI3-kinase activity in the initial phase of stimulation (PI3-kinase; E2 10 nM, ≤10 min): little or no PI3-kinase activity
- stimulation of Akt kinase activity (words) (Akt/PKB; 20 min): activated; also recorded: stimulated
- increase in Akt kinase activity after 10 min (Akt/PKB; E2 stimulation, 10 min): 1.5 fold
- increase in Akt kinase activity after 20 min (Akt/PKB; E2 stimulation, 20 min): 2.3 fold

Molecule: C[C@]12CC[C@@H]3c4ccc(O)cc4C[C@@H](CCCCCCCCC[S+]([O-])CCCC(F)(F)C(F)(F)F)[C@H]3[C@@H]1CC[C@@H]2O (stereo partly shown) [ICI 187,780]
- effect on E2-stimulated eNOS activity, later phase (≥15 min) or 30 min (eNOS): complete blockade; also recorded: completely blocked
- effect on E2-stimulated eNOS activity, later phase (≥15 min) or 30 min (eNOS; listed as ICI 182,780): completely blocked
- effect on basal eNOS activity, substance alone (eNOS): neither wortmannin nor ICI 187,780 alone affected basal eNOS activity
- effect on basal eNOS activity, substance alone (eNOS; listed as ICI 182,780): did not produce any effect
- effect on E2-induced PI3-kinase activation (PI3-kinase): full inhibition; also recorded: completely inhibited
- effect on E2-induced PI3-kinase activation (PI3-kinase; listed as ICI 182,780): completely blocked
- effect on E2-stimulated Akt kinase activity (Akt/PKB; ICI 10 μM, wortmannin 30 nM): nearly completely abolished; also recorded: almost completely inhibited

Molecule: insulin: known activator of the PI3-kinase/Akt pathway
- time after stimulation at which PI3-kinase/eNOS activity is stimulated (eNOS): ≤ 2 min
- stimulation of eNOS activity by the substance alone (eNOS; 30 min): marked increase; also recorded: able to stimulate
- stimulation of eNOS activity by the substance alone (eNOS; 30 min, listed as Insulin): activates eNOS activity
- stimulation of PI3-kinase activity (PI3-kinase; 20 min): comparable increase
- stimulation of PI3-kinase activity (PI3-kinase; 20 min, listed as Insulin): marked activation
- stimulation of Akt kinase activity (words) (Akt/PKB; 20 min): substantial increase
- stimulation of Akt kinase activity (words) (Akt/PKB; 20 min, listed as Insulin): marked activation

Source: US6566081B1, “Methods of identifying a compound which modulates the non-transcriptional non-map-kinase induced effects of steroid hormones” (The Brigham and Women's Hospital, Inc., priority 1999, dated 2003)
